Test results published in paper PMC10610505, “Synthesis and Biological Evaluation of Some New 3-Aryl-2-thioxo-2,3-dihydroquinazolin-4(1H)-ones and 3-Aryl-2-(benzylthio)quinazolin-4(3H)-ones as Antioxidants; COX-2, LDHA, α-Glucosidase and α-Amylase Inhibitors; and Anti-Colon Carcinoma and Apoptosis-Inducing Agents” (Pharmaceuticals, 2023).
Where two headings read alike, the source gives them in different places.

Tests used:
[1] = target: α-amylase; assay: In vitro α-amylase (AA) inhibition assay; details: mean ± SD of three replicates; for IC50: read-out: Mean IC50 α-Amylase (AA)
Description: Then, 180 µL of Labtest (the amylase substrate) was added and the samples were incubated for 8 min, followed by measuring the first reaction at 620 nm to obtain (X1). Afterwards, the reaction mixture was incubated for an additional 5 min at 37 °C; then, the second reaction was measured to obtain the final reading (X2). […] The results were expressed as IC50 µg/mL (as well as µM) and were determined from the standard curves.

[2] = system: HCT-116 human colon carcinoma cells; assay: Viability assay (LDH release), HCT-116; format: cell-based; details: for viability at 200 µg/mL: Homo sapiens, read-out: Mean % of viable cells ± SD, HCT-116
Description: (§1) The anticancer activities of all the synthesized compounds were assessed against two human colon carcinoma cell lines, namely LoVo and HCT-116 (Table 6), via the determination of the mean percents of the viable cancerous cells remaining after being incubated with 200 µg/mL of each test compound for 48 h using LDH assay.
(§2) The samples were diluted in Dulbecco’s Modified Eagle’s Medium, consisting of 10% fetal bovine serum (FBS), added to cells grown and cultured for 24 h in a 5% CO2-humidified incubator at 37 °C. Thereafter, the activity of lactate dehydrogenase released from damaged cells was determined in the collected supernatant aliquots using an ELISA end-point assay (Benchmark Plus, Bio-Rad, CA, USA); 0.1% Triton X-100 in the assay medium and the assay medium only were used as the positive and negative controls, respectively. Cell viability was expressed as a relative percentage of the OD values (at 550 nm) for compound-treated cells (final concentration of 200 µg /mL) and the negative control, which was shown as the mean % ± SD (n = 3). The results of the viability assays for the potential cytotoxic candidates were compared with the % of viable human umbilical vein endothelial cells (HUVEC) at the same concentration. These cells were grown in Dulbecco’s Modified Eagle’s Medium (PAN-Biotech; Barcelona, Spain) containing 10% FBS (Sigma Aldrich; St. Quentin-Fallavier, France), 2 mM Glutamine (Sigma Aldrich), 100 units/mL penicillin and […] streptomycin (Life Technologies; Paisley, UK).

[3] = target: T1, COX-2 (Homo sapiens, UniProt P35354); assay: COX-2 inhibitory screening assay (Cayman kit); format: biochemical; details: for Increase in COX-2 inhibitory efficiency by duplicating the concentration: % inhibition at 0.200 mg/mL divided by % inhibition at 0.100 mg/mL; for inhibition at 100 µg/mL: at 0.100 mg/mL; for inhibition at 100 µg/mL / inhibition at 200 µg/mL: read-out: COX-2 mean % inhibition ± SD; for inhibition at 200 µg/mL: at 0.200 mg/mL
T1 construct: purchased Cayman Chemical Company 701080
T1 sequence (P35354 18-604): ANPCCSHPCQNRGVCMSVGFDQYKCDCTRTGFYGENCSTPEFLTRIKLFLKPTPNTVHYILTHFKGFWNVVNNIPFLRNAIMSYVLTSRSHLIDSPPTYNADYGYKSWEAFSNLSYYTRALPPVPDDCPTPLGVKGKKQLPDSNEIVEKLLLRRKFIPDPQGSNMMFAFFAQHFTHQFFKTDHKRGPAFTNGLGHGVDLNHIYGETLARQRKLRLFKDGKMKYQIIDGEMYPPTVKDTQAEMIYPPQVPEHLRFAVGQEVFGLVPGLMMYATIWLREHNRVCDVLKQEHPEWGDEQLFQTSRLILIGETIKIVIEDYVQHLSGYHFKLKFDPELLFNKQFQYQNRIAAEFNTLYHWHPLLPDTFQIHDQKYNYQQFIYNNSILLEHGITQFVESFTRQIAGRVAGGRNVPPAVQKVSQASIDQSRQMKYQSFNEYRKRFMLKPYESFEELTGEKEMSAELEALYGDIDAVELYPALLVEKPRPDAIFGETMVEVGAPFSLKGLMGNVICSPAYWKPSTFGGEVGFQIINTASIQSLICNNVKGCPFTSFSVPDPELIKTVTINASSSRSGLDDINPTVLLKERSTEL
Description: Each compound of the two series, 3a–h and 5a–h, was resuspended in 100% DMSO at a final concentration of 10 mg/mL. […] Briefly, 10 µL of the tested compound was added to a mixture of the reaction buffer solution (160 µL of 0.1 M Tris-HCl, pH 8.0, in the presence of 2 mM phenol and 5 mM EDTA), COX-2 (10 µL) and heme (10 µL). After a 10 min incubation at 37 °C, the reaction was started by adding arachidonic acid (10 µL), rapidly mixed and kept at 37 °C for 2 min. PGF2α generated via PGH2 reduction with stannous chloride (30 µL) was incubated at room temperature for 5 min. The PGF2α amount was then determined via an enzyme immunoassay. Prior to incubation with the COX-2 reaction (at room temperature 18 h), the 96-well plate was previously coated with a mouse anti-rabbit monoclonal antibody. Unbound reagents were removed by washing the plate followed by adding Ellman’s reagent to the well. The reaction product displaying a distinct yellow color was measured at 410 nm using a UV microplate reader. The % inhibition was calculated by comparing the PGF2α produced in the compound-treated samples with a control sample, using the following equation: % inhibition is equal to [([PGF2α]control − [PGF2α]sample) /[PGF2α ]control ] × 100. […] The COX-2 inhibitory efficiency was expressed as an inhibition percentage, which was determined via a comparison with the negative control experiments.

[4] = system: LoVo human colon carcinoma cells; assay: Viability assay (LDH release), LoVo; format: cell-based; details: for viability at 200 µg/mL: Homo sapiens, LoVo, 48 h, read-out: Mean % of viable cells ± SD, LoVo
Description: as §1, §2

[5] = target: purified recombinant human LDHA protein (Homo sapiens, UniProt P00338); assay: Lactate dehydrogenase A (LDHA) inhibitory assay; format: biochemical; details: for Fold change of LDHA inhibition as compared to 0.1 mg/mL: % inhibition at 0.200 mg/mL divided by % inhibition at 0.100 mg/mL; for inhibition at 100 µg/mL: at 0.1 mg/mL; for inhibition at 100 µg/mL / inhibition at 200 µg/mL: read-out: LDHA mean % inhibition ± SD; for inhibition at 200 µg/mL: at 0.2 mg/mL
Description: The LDHA inhibitory effectiveness was investigated by measuring the amounts of consumed NADH [73]. […] The fluorescence of NADH, which has an excitation wavelength of 340 nm and an emission wavelength of 460 nm, was detected using a spectrofluorometer. […] The LDHA inhibitory efficiency was expressed as an inhibition percentage, which was determined via a comparison with the negative control experiments.

[6] = DPPH radical scavenging assay; format: biochemical; details: for Mean IC50 for scavenging initial DPPH radicals: mean ± SD of three replicates; for IC50: mean ± SD, converted from mg/mL, read-out: Mean IC50 for scavenging initial DPPH radicals (converted)
Description: In principle, the antioxidant power of a compound in this assay is correlated to its tendency to reduce the stable, purple-colored DPPH radical through a hydrogen atom transfer (HAT) mechanism and/or a single electron transfer mechanism, thereby converting it to the yellow-colored 2,2-diphenyl-1-picrylhydrazine, whereby this reduction is accompanied by a depletion in the amount of the initial DPPH radicals and a change in the absorbance of the test solution accordingly, which can be detected relative to the blank solution at λ = 517 nm.
The antioxidant potencies of all synthesized compounds were investigated using a 1,1 diphenyl-2-picrylhydrazyl (DPPH) radical scavenging assay according to the protocol described by Bersuder et al.. In brief, a 0.5 mL volume of DPPH ethanolic solution was mixed with an equal volume of each sample concentration (i.e., the test compound or butylated hydroxytoluene, BHT, which was used as the reference antioxidant in the positive control experiment), shaken strongly, and incubated at room temperature for 1 h in darkness. The absorbance of the residual DPPH radicals was measured at λ = 519 nm and compared to the negative control (without the test compound or reference antioxidant). The DPPH radical scavenging power was calculated using the following formula: scavenging efficiency (%) = (1 − Acompound/AControl) × 100, where Acompound and Acontrol are the absorbance of the tested compound and the negative control, respectively. […] Additionally, the ± SD values were calculated from three independent triplicate measurements.

Row | Compound | Mean IC50 α-Amylase (AA) [1] [µg/mL] | IC50 [1] [µM] | viability at 200 µg/mL ([2]; HCT-116, 48 h) [%] | Increase in COX-2 inhibitory efficiency by duplicating the concentration [3] [fold] | inhibition at 100 µg/mL [3] [%] | inhibition at 200 µg/mL [3] [%] | viability at 200 µg/mL [4] [%] | Fold change of LDHA inhibition as compared to 0.1 mg/mL [5] [fold] | inhibition at 100 µg/mL [5] [%] | inhibition at 200 µg/mL [5] [%] | Mean IC50 for scavenging initial DPPH radicals [6] [µg/mL] | IC50 [6] [µM] | viability at 200 µg/mL ([2]; HCT-116, 200 µg/mL, 48 h) [%] | viability at 200 µg/mL ([4]; 200 µg/mL) [%] | Mean % of viable cells, HCT-116 ([2]; positive control, 0.1%) [%] | Mean % of viable cells, LoVo ([4]; positive control, 0.1%) [%]
1 | O=c1c2cc(Cl)ccc2[nH]c(=S)n1-c1ccc(C(F)(F)F)cc1 [Compound 3d, 6-Chloro-2-thioxo-3-(4-trifluoromethyl-phenyl)-2,3-dihydro-1H-quinazolin-4-one] | 335.667 ± 3.055 | 941 | 96 ± 1.73 | 1.62 | 20.2 ± 1.13 | 32.8 ± 2.48 | 87 ± 1.73 | 1.59 | 33.5 ± 2.12 | 53.5 ± 2.12 | 179 ± 16 | 502 | – | – | – | –
2 | O=c1c2cc(Cl)ccc2nc(SCc2ccccc2F)n1-c1cccc(C(F)(F)F)c1 [Compound 5a, 2-(2-Fluoro-benzylsulfanyl)-6-chloro-3-(3-trifluoromethyl-phenyl)-3H-quinazolin-4-one] | 86.667 ± 4.509 | 186 | – | 1.85 | 34.2 ± 1.7 | 63.1 ± 5.87 | – | 1.62 | 24 ± 1.7 | 38.9 ± 1.13 | 80 ± 2 | 172 | 89.7 ± 3.06 | 90.3 ± 1.53 | – | –
3 | COc1ccc(Br)c(CSc2nc3ccc(Br)cc3c(=O)n2-c2ccc(C(F)(F)F)cc2)c1 [Compound 5e, 2-(2-Bromo-5-methoxybenzylsulfanyl)-6-bromo-3-(4-trifluoromethyl-phenyl)-3H-quinazolin-4-one] | 150.333 ± 3.512 | 250 | – | 1.67 | 31 ± 2.83 | 51.6 ± 4.88 | – | 1.29 | 15.2 ± 1.77 | 19.6 ± 2.33 | 225 ± 21 | 375 | 79.7 ± 2.52 | 64.3 ± 2.08 | – | –
4 | Triton X-100 [reference compound] | – | – | – | – | – | – | – | – | – | – | – | – | – | – | 0.000 | 0.000
5 | O=c1c2cc(Br)ccc2[nH]c(=S)n1-c1ccc(C(F)(F)F)cc1 [Compound 3e, 6-Bromo-2-thioxo-3-(4-trifluoromethyl-phenyl)-2,3-dihydro-1H-quinazolin-4-one] | 252.00 ± 4.583 | 628 | 92.3 ± 2.52 | 1.50 | 10.4 ± 1.7 | 15.7 ± 0.495 | 90.7 ± 3.51 | 1.62 | 22.1 ± 1.2 | 36 ± 1.34 | 290 ± 28 | 723 | – | – | – | –
6 | COc1cc2nc(SCc3cccc([N+](=O)[O-])c3)n(-c3cccc(C(F)(F)F)c3)c(=O)c2cc1OC [Compound 5c, 2-(3-Nitrobenzylsulfanyl)-6,7-dimethoxy-3(3-trifluoromethyl-phenyl)-3H-quinazolin-4-one] | 197.333 ± 4.509 | 381 | – | 1.41 | 18.6 ± 3.46 | 26.2 ± 4.03 | – | 1.67 | 8.55 ± 1.06 | 14.3 ± 1.56 | 186 ± 6 | 359 | 82.3 ± 2.52 | 78.3 ± 3.51 | – | –
7 | COc1ccc(Br)c(CSc2nc3ccc(Cl)cc3c(=O)n2-c2ccc([N+](=O)[O-])cc2)c1 [Compound 5f, 2-(2-Bromo-5-methoxy-benzylsulfanyl)-6-chloro-3-(4-nitro-phenyl)-3H-quinazolin-4-one] | 106.667 ± 5.033 | 200 | – | 1.80 | 28.9 ± 2.69 | 52 ± 2.83 | – | 1.60 | 31.9 ± 2.48 | 51 ± 3.61 | 241 ± 13 | 452 | 76 ± 1.73 | 84.3 ± 3.51 | – | –
8 | Cc1cc(C(C)(C)C)c(O)c(C(C)(C)C)c1 [BHT, butylated hydroxy toluene, reference compound] | – | – | – | – | – | – | – | – | – | – | 54 ± 6 | 245 | – | – | – | –
9 | O=c1c2cc(Br)ccc2[nH]c(=S)n1-c1cccc(C(F)(F)F)c1 [Compound 3b, 6-Bromo-2-thioxo-3-(3-trifluoromethyl-phenyl)-2,3-dihydro-1H-quinazolin-4-one] | – | 427 | 70.7 ± 2.52 | 1.72 | 6.25 ± 1.77 | 10.8 ± 2.48 | 62 ± 3.61 | 1.45 | 29.1 ± 2.19 | 42.4 ± 1.91 | – | – | – | – | – | –
